Results published in ChEMBL document CHEMBL1201862, “PubChem BioAssay data set” (2004).
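How tested: cells in 96-well plates exposed to compound for 48 hours at five concentrations. At the GI50, growth is halved.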 Active and inactive are the calls of the source. Rule as the data show it: active = GI50 up to about 1.1 µM and inactive = higher.

Experiments:
Assay in all cases: NCI anticancer screen, dose series, 48 h
[1] = test system: MDA-MB-435
[2] = test system: NCI-H460
[3] = test system: UACC-257
[4] = test system: HCT-15
[5] = test system: HCT-116
[6] = test system: RXF 393
[7] = test system: NCI-H522
[8] = test system: SN12C
[9] = test system: OVCAR-8
[10] = test system: SK-MEL-5
[11] = test system: NCI-H23
[12] = test system: SNB-75
[13] = test system: T47D
[14] = test system: HCC 2998
[15] = test system: K562
[16] = test system: NCI-H226
[17] = test system: IGROV-1
[18] = test system: Hs-578T
[19] = test system: RPMI-8226

Structure (SMILES) | GI50 [1] | GI50 [2] | GI50 [3] | GI50 [4] [µM] | GI50 [5] | GI50 [6] | GI50 [7] | GI50 [8] | GI50 [9] | GI50 [10] | GI50 [11] | GI50 [12] | GI50 [13] | GI50 [14] | GI50 [15] | GI50 [16] | GI50 [17] | GI50 [18] | GI50 [19]
O=C(Nc1ccccc1)O/N=C(/CBr)c1ccccc1 | 4.84 µM (inactive) | 19 µM (inactive) | 17.8 µM (inactive) | 4.04 | 4.3 µM (inactive) | 31.9 µM (inactive) | 8.85 µM (inactive) | 8.22 µM (inactive) | 14.6 µM (inactive) | 11.9 µM (inactive) | 7.35 µM (inactive) | 15.2 µM (inactive) | 11.5 µM (inactive) | 18.5 µM (inactive) | 4.12 µM (inactive) | 24 µM (inactive) | 14.6 µM (inactive) | 26.2 µM (inactive) | 16.3 µM (inactive)
COc1cc(/C=C2\C[C@H]3[C@@H]4CCC5=CC(=O)CC[C@]5(C)[C@H]4CC[C@]3(C)C2=O)cc(OC)c1OC | 3.36 µM (inactive) | 6.35 µM (inactive) | 6.07 µM (inactive) | 4.82 | 3.85 µM (inactive) | 10.1 µM (inactive) | 3.2 µM (inactive) | 6.4 µM (inactive) | 4 µM (inactive) | 3.07 µM (inactive) | 6.4 µM (inactive) | 9.08 µM (inactive) | 2.04 µM (inactive) | 15 µM (inactive) | 3.82 µM (inactive) | > 28.5 µM (inactive) | 8.99 µM (inactive) | 17.8 µM (inactive) | 2.38 µM (inactive)
CS(=O)(=O)Nc1ccc2c(c1)oc(=O)c1ccccc12 | > 100 µM (inactive) | > 100 µM (inactive) | > 100 µM (inactive) | > 100 | > 100 µM (inactive) | > 100 µM (inactive) | > 100 µM (inactive) | > 100 µM (inactive) | > 100 µM (inactive) | > 100 µM (inactive) | > 100 µM (inactive) | > 100 µM (inactive) | > 100 µM (inactive) | > 100 µM (inactive) | > 100 µM (inactive) | > 100 µM (inactive) | > 100 µM (inactive) | > 100 µM (inactive) | > 100 µM (inactive)
O=C(O)c1ccccc1C(=O)NCC1S(=O)(=O)OCCOS1(=O)=O | > 100 µM (inactive) | > 100 µM (inactive) | > 100 µM (inactive) | > 100 | > 100 µM (inactive) | > 100 µM (inactive) | > 100 µM (inactive) | > 100 µM (inactive) | > 100 µM (inactive) | > 100 µM (inactive) | > 100 µM (inactive) | > 100 µM (inactive) | > 100 µM (inactive) | > 100 µM (inactive) | > 100 µM (inactive) | > 100 µM (inactive) | > 100 µM (inactive) | > 100 µM (inactive) | > 100 µM (inactive)
CN1CCN(c2cc3nc4cc(O)cc(O)c4c(O)c3cc2N)CC1 | 18.1 µM (inactive) | 36.3 µM (inactive) | 38.8 µM (inactive) | 67 | 35.8 µM (inactive) | 20.7 µM (inactive) | 19.5 µM (inactive) | 1.5 µM (inactive) | 26.2 µM (inactive) | 18.5 µM (inactive) | 40.6 µM (inactive) | 18.2 µM (inactive) | 21.6 µM (inactive) | 16.2 µM (inactive) | 14.5 µM (inactive) | 1.95 µM (inactive) | 20.2 µM (inactive) | 29.7 µM (inactive) | 20.8 µM (inactive)
CN(C)CCNC(=O)c1cccc2nc3cccc(F)c3nc12 | 1.56 µM (inactive) | 0.579 µM (active) | 1.39 µM (inactive) | 1.16 | 0.542 µM (active) | 1.54 µM (inactive) | 1.05 µM (active) | 1.02 µM (active) | 0.843 µM (active) | 1.13 µM (inactive) | 1.5 µM (inactive) | 2.62 µM (inactive) | 3.31 µM (inactive) | 1.49 µM (inactive) | 1.29 µM (inactive) | 1.24 µM (inactive) | 1.6 µM (inactive) | 1.41 µM (inactive) | 0.8 µM (active)
C(=C\N1CCCCC1)/c1nnnn1-c1ccccc1 | 22.2 µM (inactive) | 73.8 µM (inactive) | 56.2 µM (inactive) | 23.6 | 25.4 µM (inactive) | 13.9 µM (inactive) | 47 µM (inactive) | 26.2 µM (inactive) | 26.4 µM (inactive) | 23.3 µM (inactive) | 25.2 µM (inactive) | 19.6 µM (inactive) | 13.5 µM (inactive) | 90.6 µM (inactive) | 30.7 µM (inactive) | 37.2 µM (inactive) | 27.7 µM (inactive) | 17 µM (inactive) | 21.1 µM (inactive)
Cc1ccc(-c2cn3c(nc4ccccc43)c(C)n2)cc1 | 16 µM (inactive) | 26.7 µM (inactive) | > 100 µM (inactive) | 25.2 | 32 µM (inactive) | 21.8 µM (inactive) | 31.2 µM (inactive) | 55.6 µM (inactive) | 36 µM (inactive) | 10.7 µM (inactive) | 22.6 µM (inactive) | > 47 µM (inactive) | 4.2 µM (inactive) | > 100 µM (inactive) | 43.5 µM (inactive) | 34.3 µM (inactive) | 11.7 µM (inactive) | 51.3 µM (inactive) | 30.7 µM (inactive)
Cc1sc(/N=C/c2c[nH]c3ccccc23)c(C#N)c1C | 32.3 µM (inactive) | 33.1 µM (inactive) | 44.6 µM (inactive) | 24 | 23.4 µM (inactive) | 22.3 µM (inactive) | 27.9 µM (inactive) | 74.3 µM (inactive) | 45.5 µM (inactive) | 18.4 µM (inactive) | 54.1 µM (inactive) | 37.1 µM (inactive) | 18.6 µM (inactive) | 14.9 µM (inactive) | 16.3 µM (inactive) | 30.5 µM (inactive) | 21.7 µM (inactive) | 58.1 µM (inactive) | 19.7 µM (inactive)
Cc1nc(-c2ccccc2)cn2c1nc1ccccc12 | 19.2 µM (inactive) | 17.7 µM (inactive) | 29 µM (inactive) | 16.4 | 25.9 µM (inactive) | 19.6 µM (inactive) | 24.9 µM (inactive) | 29.7 µM (inactive) | 18.8 µM (inactive) | 13.9 µM (inactive) | 25.9 µM (inactive) | 17.2 µM (inactive) | 2.05 µM (inactive) | 51.4 µM (inactive) | > 61.7 µM (inactive) | 17.5 µM (inactive) | 19.9 µM (inactive) | 35.4 µM (inactive) | 41.1 µM (inactive)
CC(C)NC(=O)OCc1c(COC(=O)NC(C)C)c(-c2cc[n+](COC(=O)C(C)(C)C)cc2)n2c1CCC2 | > 100 µM (inactive) | > 100 µM (inactive) | > 100 µM (inactive) | > 100 | > 100 µM (inactive) | > 100 µM (inactive) | > 100 µM (inactive) | > 100 µM (inactive) | > 100 µM (inactive) | > 100 µM (inactive) | > 100 µM (inactive) | > 100 µM (inactive) | > 100 µM (inactive) | > 100 µM (inactive) | > 100 µM (inactive) | > 100 µM (inactive) | > 100 µM (inactive) | > 100 µM (inactive) | > 100 µM (inactive)
NCC(=O)NC1(c2cc3ccccc3s2)CCCCC1 | 37.8 µM (inactive) | 33.5 µM (inactive) | 17.4 µM (inactive) | 61.1 | 42.7 µM (inactive) | 42.3 µM (inactive) | 41.4 µM (inactive) | 79.1 µM (inactive) | > 100 µM (inactive) | 17.8 µM (inactive) | 71.4 µM (inactive) | 28.3 µM (inactive) | 40 µM (inactive) | 15.6 µM (inactive) | 5.68 µM (inactive) | 18.7 µM (inactive) | 61.1 µM (inactive) | 27.7 µM (inactive) | 21.8 µM (inactive)
O=C(O)CCSC(CC1(c2ccc(Cl)cc2)NC(=O)CCS1)c1ccccc1 (stereo not given) | 14.3 µM (inactive) | 16.8 µM (inactive) | 21.9 µM (inactive) | 8.09 | 4.71 µM (inactive) | 21.7 µM (inactive) | 15.1 µM (inactive) | 18.3 µM (inactive) | 19.9 µM (inactive) | 13 µM (inactive) | 20.9 µM (inactive) | 17.1 µM (inactive) | 16.1 µM (inactive) | 10 µM (inactive) | 10.8 µM (inactive) | 17.3 µM (inactive) | 12.1 µM (inactive) | 12.9 µM (inactive) | 3.56 µM (inactive)
COc1ccc(/C=N/c2ccc(-c3nc4ccccc4s3)cc2)cc1OC | 33.3 µM (inactive) | 21.8 µM (inactive) | 22.7 µM (inactive) | 31.8 | 29.1 µM (inactive) | 20.3 µM (inactive) | 16.7 µM (inactive) | 25.7 µM (inactive) | 36.2 µM (inactive) | 16.1 µM (inactive) | 27.1 µM (inactive) | 25.7 µM (inactive) | 17.4 µM (inactive) | 20.2 µM (inactive) | 27.4 µM (inactive) | 30.1 µM (inactive) | 25.1 µM (inactive) | 24.5 µM (inactive) | 21.7 µM (inactive)
CN1CCN(C2=C(Cl)C(=O)c3c(O)ccc(O)c3C2=O)CC1 | 0.214 µM (active) | 1.94 µM (inactive) | 0.689 µM (active) | 0.176 | 0.234 µM (active) | 0.18 µM (active) | 0.243 µM (active) | 0.826 µM (active) | 0.223 µM (active) | 0.502 µM (active) | 0.61 µM (active) | 2.03 µM (inactive) | 0.551 µM (active) | 2.04 µM (inactive) | 0.217 µM (active) | 2 µM (inactive) | 1.3 µM (inactive) | 2.41 µM (inactive) | 1.44 µM (inactive)
